Test results: patent EP3570868B1, “[…] ANTIMICROBIAL PEPTIDES AND THEIR APPLICATIONS FOR THE TREATMENT AND PREVENTION OF MUSCU[…]” (Ustav Organicke Chemie a Biochemie AV CR, v.v.i., priority 2017, dated 2018)
Square brackets hold non-standard residues; d marks the D form. Peptide text beside a SMILES is read from it. βAla = NCCC(=O)O

Legend:
[1] = test system: Candida albicans; type: cell-based; conditions: C.a.; 37° C for 20 h
Procedure: (§1) Gram-positive bacteria (Bacillus subtilis, Staphylococcus aureus, Staphylococcus epidermidis and Enterococcus faecalis), Gram-negative bacteria (Escherichia coli and Pseudomonas aeruginosa) and the yeast (Candida albicans) were grown to exponential phase and then were diluted with fresh medium. BHI medium (Oxoid, Great Britain) was used for Enterococcus faecalis; YPD medium containing yeast extract, peptone and glucose was used for Candida albicans and LB medium (Sigma, Czech Republic) was used for the remaining microorganisms. Then the microorganisms were added to the solutions of the tested antimicrobial peptides in LB medium in multi-well plates, so that the final peptide concentration it the wells was in the range of 0.5 to 100 µmοl.1^-1. The plates were incubated at 37° C for 20 h while being continuously shaken in a Bioscreen C (Oy Growth Curves AB Ltd., Helsinki, Finland). Absorbance was measured at 540 nm every 15 min. Antimicrobial activity (Table 2) was determined as a quantitative minimum inhibitory concentration (MIC) by observing bacterial growth in the presence of different concentrations of tested peptides. In the experiments, ca 10^5 CFU of bacteria or candida per well were used. Tetracycline in a concentration range of 0.5 - 100 µmol.1^-1 was used as a standard.
(§2) Clinical isolates of bacteria were obtained from University Hospital in Motol, Prague, Czech Republic and from Liberec Regional Hospital, Czech Republic. Methicillin resistant Staphylococcus aureus (MRSA) 6271 and Pseudomonas aeruginosa 5482 were from the Czech National Collection of Type Cultures, the National Institute of Public Health, Prague, Czech Republic. Other bacteria were from the Czech Collection of Microorganisms, Brno, Czech Republic. Candida albicans came from the Faculty of Medicine, Palacky University, Olomouc, Czech Republic. Candida tropicalis ATCC 750 and Candida glabrata DSY 565 were obtained from the Institute of Physiology, Academy of Sciences of the Czech Republic.

[2] = test system: Bacillus subtilis; type: cell-based; conditions: B.s.; 37° C for 20 h
Procedure: as §1, §2

[3] = test system: Escherichia coli; type: cell-based; conditions: E.c.; 37° C for 20 h
Procedure: as §1, §2

[4] = test system: MRSA (clin. isolate Motol); type: cell-based, Staphylococcus aureus; conditions: 37° C for 20 h
Procedure: as §1, §2

[5] = test system: MRSA (clin. isolate Liberec); type: cell-based, Staphylococcus aureus; conditions: 37° C for 20 h
Procedure: as §1, §2

[6] = test system: MRSA 6271; type: cell-based, Staphylococcus aureus; conditions: 37° C for 20 h
Procedure: as §1, §2

[7] = test system: MRSA (clin. isolate Motol); experiment: Biofilm formation on the surface of a bone cement implant in femur heads; type: cell-based, Staphylococcus aureus; conditions: two days
Procedure: (§6) The resulting elastic paste is placed into a 2 ml plastic syringe (without needle) and pressed into the infected holes in the spongy part of the bone, where it polymerizes and hardens. For comparison, other similarly infected holes are filled with cement containing only an antibiotic or antimycotic agent. For comparison, a Vancogenx® cement (Tecresa S. p. A., Italy) is used, made from a mixture of a powdered polymer component containing vancomycin and gentamicin. The mixture in an amount of 125 mg is mixed with liquid monomer (50-60 µl) and then pressed into the openings as described above. In another embodiment, the cements are applied to uninfected holes, allowed to harden, and then microbes are pipetted into the hole excavated between implants. From there they penetrate through bone tissue and settle on the implants with consequent formation of biofilms.
(§7) After two days, implants are removed with metal spikes and tweezers, mechanically cleaned from debris of bone tissue, and washed four times with physiological saline (0.5 ml) in plastic tubes to remove any residual planktonic microbes or bone cells from their surface. The implants in closed tubes with 0.4 ml saline are then sonicated four times for 3 min with occasional shaking. The of microbial biofilm on the surface of the implant is thus disrupted and microbes are loosed into the physiological saline. […]

[8] = test system: E.f. (clin. isolate Motol); type: cell-based, Enterococcus faecalis; conditions: 37° C for 20 h
Procedure: as §1, §2

[9] = test system: Candida albicans (clin. isolate Olomouc); experiment: Biofilm formation on the surface of a bone cement implant in femur heads; type: cell-based; conditions: two days, cement without peptide 6.0x10^3
Procedure: as §6
(§8) After two days, implants are removed with metal spikes and tweezers, mechanically cleaned from debris of bone tissue, and washed four times with physiological saline (0.5 ml) in plastic tubes to remove any residual planktonic microbes or bone cells from their surface. The implants in closed tubes with 0.4 ml saline are then sonicated four times for 3 min with occasional shaking. The of microbial biofilm on the surface of the implant is thus disrupted and microbes are loosed into the physiological saline. The resulting suspension is subsequently diluted using the tenfold serial dilution for culturing on agar.
(§9) Evaluation of the effect of antimicrobial peptides on the formation of microbial biofilm on the surface of the implant made of the bone cement.

[10] = test system: P.a. (clin. isolate Liberec); type: cell-based, Pseudomonas aeruginosa; conditions: 37° C for 20 h
Procedure: as §1, §2

[11] = test system: P.a. 5482; type: cell-based, Pseudomonas aeruginosa; conditions: 37° C for 20 h
Procedure: as §1, §2

[12] = test system: S.e. (clin. isolate Motol); type: cell-based, Staphylococcus epidermidis; conditions: 37° C for 20 h
Procedure: as §1, §2

[13] = test system: Enterococcus faecalis (clin. isolate Motol); experiment: Biofilm formation on the surface of a bone cement implant in femur heads; type: cell-based; conditions: two days
Procedure: as §6, §7

[14] = test system: human red blood cells; experiment: Determination of haemolytic activity; type: cell-based; conditions: human red blood cells (5% v/v), 1 h at 37 °C; concentration for lysis of 50% of erythrocytes
Procedure: The peptides in the concentrations 2-400 µmol.1^-1 were incubated with the suspension of human red blood cells (5% v/v) for 1 h at 37 °C in a physiological solution at a final volume of 0.2 ml. The samples were then centrifuged for 5 min at 250 g. The absorbance of the supernatant was determined at 540 nm. 0.2% (v/v) TRITON X100 was used as a control for 100% haemolysis. Haemolytic activity is expressed as the peptide concentration required for lysis of 50% of human erythrocytes in the assay (LC50). Table 2. Antimicrobial and haemolytic activity of I up to XIII peptides and tetracycline.

[15] = test system: MRSA (clin. isolate Liberec); experiment: Induced osteomyelitis model in femur heads: effect of peptides released from carrier on infection in the bone graft; type: cell-based, Staphylococcus aureus; conditions: ChronOS (200 mg); 10 mg, separate holes; two days; carrier without peptide 3,4x10^7
Procedure: (§3) 3-4 holes of a diameter of 5 mm and a depth of 10 mm are drilled with a surgical spoon into a femur head under sterile conditions (spongy part of the bone in the resection site). Thereafter, this bone graft is put into a beaker of appropriate size and lined with sterile gauze squares. The gauze is moistened with sterile physiological saline to prevent drying of the bone. Then, suspension of multiplied microbes in an appropriate medium (50-100 µl) at a concentration of 10^7 to 10^9 CFU is sequentially applied to the prepared holes in the bone graft and allowed to incubate for 1-2 days. […] Beaker with the infected bone graft is covered with a sterile Petri dish. During the experiment, induced osteomyelitis models are kept protected from light at room temperature.
(§4) After the incubation, the infected holes in the bone are filled with a mixture of the local carrier, and a peptide selected from the series of peptides of formulae I to XIII or their specific enantiomers (Figure 1). For comparison, one of the holes is filled with the local carrier without peptide, or the carrier filled with antibiotic (vancomycin or gentamicin). A commercially available two-component material supplied by Synthes (Synthes GmbH, Switzerland) under the name ChronOS Inject was used as the carrier. Its solid component comprises a mixture of calcium phosphates CaHPO4.2H2O and Ca3(PO4)2 and additives, the liquid component is 0.5% (vol./vol.) solution of hyaluronic acid.
(§5) After two days, the filling is thoroughly removed with a surgical spoon and empty holes are wiped with moistened sterile cotton swab, which is then extracted into 400 µl physiological saline. The extract is diluted in a tenfold serial dilution and each diluted suspension is cultured on agar in Petri dishes; the culture is evaluated on the following day. […] The result of the peptide effect is also compared with the result of the effect of antibiotics. In some cases, microbiological examination of the bone tissue taken with a surgical spoon from a deeper area of the drilled holes is performed. […] Table 3. Evaluation of the effect of antimicrobial peptides released from the carrier on an infection in the bone graft. Effect of antimicrobial activity is expressed in the number of CFU (colony-forming units) in the infected hole after swabbing.

[16] = test system: MRSA 6271; experiment: as above; type: cell-based, Staphylococcus aureus; conditions: ChronOS (200 mg), two days, carrier without peptide 7,0x10^7
Procedure: as §3, §4, §5

[17] = test system: Candida tropicalis ATCC 750; experiment: Biofilm formation on the surface of a bone cement implant in femur heads; type: cell-based; conditions: two days, cement without peptide 3.7x10^5
Procedure: (§10) The resulting elastic paste is placed into a 2 ml plastic syringe (without needle) and pressed into the infected holes in the spongy part of the bone, where it polymerizes and hardens. For comparison, other similarly infected holes are filled with cement containing only an antibiotic or antimycotic agent. […] The mixture in an amount of 125 mg is mixed with liquid monomer (50-60 µl) and then pressed into the openings as described above. In another embodiment, the cements are applied to uninfected holes, allowed to harden, and then microbes are pipetted into the hole excavated between implants. From there they penetrate through bone tissue and settle on the implants with consequent formation of biofilms.
(§11) After two days, implants are removed with metal spikes and tweezers, mechanically cleaned from debris of bone tissue, and washed four times with physiological saline (0.5 ml) in plastic tubes to remove any residual planktonic microbes or bone cells from their surface. The implants in closed tubes with 0.4 ml saline are then sonicated four times for 3 min with occasional shaking. The of microbial biofilm on the surface of the implant is thus disrupted and microbes are loosed into the physiological saline. The resulting suspension is subsequently diluted using the tenfold serial dilution for culturing on agar. […]

[18] = test system: MRSA 6271; experiment: as above; type: cell-based, Staphylococcus aureus; conditions: two days
Procedure: as §6, §8, §9

[19] = test system: S. epidermidis (clin. isolate Motol); experiment: Induced osteomyelitis model in femur heads: effect of peptides released from carrier on infection in the bone graft; type: cell-based; conditions: ChronOS (300 mg); 10 mg, separate holes; two days; carrier without peptide 1,2x10^5
Procedure: as §3, §4, §5

[20] = test system: P. aeruginosa 5482; experiment: Biofilm formation on the surface of a bone cement implant in femur heads; type: cell-based; conditions: two days
Procedure: as §10, §11

[21] = test system: P. aeruginosa (clin. isolate Liberec); experiment: as above; type: cell-based; conditions: two days, cement without peptide N/A
Procedure: as §10, §11

[22] = test system: S. epidermidis (clin. isolate Motol); experiment: as above; type: cell-based; conditions: two days, cement without peptide 4.0x10^6
Procedure: as §10, §11

[23] = test system: S. aureus (clin. isolate Liberec); experiment: Induced osteomyelitis model in femur heads: effect of peptides released from carrier on infection in the bone graft; type: cell-based; conditions: ChronOS (200 mg); 10 mg, separate holes; two days; carrier without peptide 3,9x10^6
Procedure: as §3, §4, §5

[24] = test system: MRSA (clin. isolate Liberec); experiment: Biofilm formation on the surface of a bone cement implant in femur heads; type: cell-based, Staphylococcus aureus; conditions: two days, cement without peptide 8,8x10^3
Procedure: as §6, §7

[25] = test system: MRSA (clin. isolate Motol); experiment: Induced osteomyelitis model in femur heads: effect of peptides released from carrier on infection in the bone graft; type: cell-based, Staphylococcus aureus; conditions: ChronOS (200 mg); 10 mg; two days; carrier without peptide 4,8x10^6
Procedure: as §3, §4, §5

[26] = test system: P. aeruginosa 5482; experiment: as above; type: cell-based; conditions: ChronOS (200 mg); V (9 mg); two days; carrier without peptide 1,0x10^9
Procedure: as §3, §4, §5

[27] = cement without peptide 2.8x10^6

Row | SMILES | Antimicrobial activity MIC [1] | Antimicrobial activity MIC [2] | Antimicrobial activity MIC [3] | Antimicrobial activity MIC [4] | Antimicrobial activity MIC [5] | Antimicrobial activity MIC [6] | Antimicrobial activity MIC [8] | CFU/implant [9] | Antimicrobial activity MIC [10] | Antimicrobial activity MIC [11] | Antimicrobial activity MIC [12] | Hemolytic activity LC50 [14] [µM] | CFU/hole [15] | further results
1 | CC[C@H](C)[C@H](NC(=O)[C@H](CCCCN)NC(=O)[C@H](CCCCN)NC(=O)[C@H](CC(C)C)NC(=O)[C@H](CC(C)C)NC(=O)[C@H](CCCCN)NC(=O)[C@H](CCSC)NC(=O)[C@H](Cc1c[nH]c2ccccc12)NC(=O)[C@H](CCCCN)NC(=O)CN)C(=O)N[C@@H](CC(C)C)C(=O)N[C@@H](CCCCN)C(N)=O [III] | 5,7 µmol.l^-1 | 1,8 µmol.l^-1 | 9,0 µmol.l^-1 | 5,7 µmol.l^-1 | 3,6 µmol.l^-1 | 6,3 µmol.l^-1 | 13,3 µmol.l^-1 | 2 CFU/implant | 10,0 µmol.l^-1 | 2,8 µmol.l^-1 | 2,3 µmol.l^-1 | 339 | 2,3x10^5 / 2,3x10^5 CFU/hole | CFU/implant ([7]; cement without peptide 3,4x10^5): 0 CFU/implant; CFU/implant [13, 27]: 0 CFU/implant; CFU/implant ([13]; cement without peptide 2.9x10^5): 0 CFU/implant; CFU/hole ([16]; III (5 mg)): 1,9x10^2 CFU/hole; CFU/hole ([16]; III (10 mg)): 7,6x10^2 CFU/hole; CFU/implant [17]: 0 CFU/implant; CFU/implant ([18]; cement without peptide N/A, first experiment with III): 5.1 x 10^3 CFU/implant; CFU/implant ([18]; cement without peptide N/A, second experiment with III): 0 CFU/implant; CFU/hole [19]: 0 in all cases CFU/hole; CFU/implant [20, 27]: 2.6x10^1 CFU/implant; CFU/implant [21]: 1.1x10^3 CFU/implant
2 | CC[C@H](C)[C@H](NC(=O)[C@H](CCCCN)NC(=O)[C@H](CCCCN)NC(=O)[C@H](CC(C)C)NC(=O)[C@H](CC(C)C)NC(=O)[C@H](CCCCN)NC(=O)[C@H](CCSC)NC(=O)[C@H](Cc1c[nH]c2ccccc12)NC(=O)[C@@H](N)CCCCN)C(=O)N[C@@H](CC(C)C)C(=O)N[C@@H](CCCCN)C(N)=O [I] (H-KWMKLLKKILK-NH2) | 9,5 µmol.l^-1 | 2,3 µmol.l^-1 | 12,7 µmol.l^-1 | 17,7 µmol.l^-1 | 8,0 µmol.l^-1 | 13,5 µmol.l^-1 | >100 µmol/L | 6.8x10^1 CFU/implant | 5,8 µmol.l^-1 | 2,9 µmol.l^-1 | 3,2 µmol.l^-1 | >400 | 2,3x10^5 / 2,3x10^5 CFU/hole | CFU/implant ([7]; cement without peptide 2,6x10^6): 0 CFU/implant; CFU/implant [22]: 1,1x10^3 CFU/implant; CFU/implant ([18]; cement without peptide 1.1x10^6): 0 CFU/implant; CFU/hole [23]: 1,3x10^4 CFU/hole; CFU/implant ([20]; cement without peptide 6x10^5): 7.0x10^2 CFU/implant; CFU/implant [24]: 0 CFU/implant
3 | CC[C@H](C)[C@H](NC(=O)[C@H](CCCCN)NC(=O)[C@H](CCCCN)NC(=O)[C@H](CC(C)C)NC(=O)[C@H](CC(C)C)NC(=O)[C@H](CCCCN)NC(=O)[C@H](CCSC)NC(=O)[C@H](Cc1c[nH]c2ccccc12)NC(=O)[C@H](CCCCN)NC(=O)CCN)C(=O)N[C@@H](CC(C)C)C(=O)N[C@@H](CCCCN)C(N)=O [Peptide V] (H-[βAla]KWMKLLKKILK-NH2) | 11,3 µmol.l^-1 | 1,8 µmol.l^-1 | 6,8 µmol.l^-1 | 10,0 µmol.l^-1 | 5,7 µmol.l^-1 | 11,3 µmol.l^-1 | 59,0 µmol.l^-1 |  | 7,0 µmol.l^-1 | 2,8 µmol.l^-1 | 2,8 µmol.l^-1 | 270 |  | CFU/hole [25]: 4,0 CFU/hole; CFU/hole [26]: 2,0x10^5 CFU/hole
